One may read the EC50 as the concentration needed to bring the measured effect to its halfway point.

The subject of one experiment is HT-1080 (ATCC, CCL-121) cells. The experiment can be described thus: HT-1080 cell viability assay with ferroptosis inducer RSL3 (Cell Titer-Glo). It counts as cell-based. Conditions: HT-1080 cells treated with RSL3; 3-fold, 10-point dilution, 1.1 μM highest concentration; Table 3; read-out: EC50 (nM), ferroptosis inhibitory activity. In a few lines: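 EC50 was derived by sigmoidal dose-response regression of CellTiter-Glo luminescence viability, expressed relative to untreated wells. Compounds were tested in a ten-point, threefold dilution series (highest 1.1 μM) in the presence of the ferroptosis inducer RSL3. HT-1080 cells had been seeded at 6000 per well and grown overnight first.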
In general terms: Cellular ATP, detected with luciferase, serves as a proxy for viable cell number.
`CC1CN(c2ccc(Nc3ccc4c(c3)nnn4C)cc2)CC(C)O1` (centres unmarked) [Compound 458, N-(4-(2,6-dimethylmorpholino)phenyl)-1-methyl-1H-benzo[d][1,2,3]triazol-5-amine]: the EC50 was in the range of 0.1 to 100 nM.
On the same count and under the same terms, to `Cc1cc(Nc2ccc3c(c2)OCC(=O)N3CCO)ccc1N1CC(C)OC(C)C1` (centres unmarked) [Compound 461, 7-((4-(2,6-dimethylmorpholino)-3-methylphenyl)amino)-4-(2-hydroxyethyl)-2H-benzo[b][1,4]oxazin-3(4H)-one] belongs 0.1 to 100 nM.

Still in this experiment, the particulars now being: Homo sapiens; HT-1080 cells treated with RSL3; 3-fold, 10-point dilution, 1.1 μM highest concentration; Table 2; read-out: EC50 (nM), ferroptosis inhibitory activity.
Turning to `Cc1cc(N2CC(C)OC(C)C2)ccc1Nc1ccc2c(c1)CNC2` (centres unmarked) [Compound 440, N-(4-(2,6-dimethylmorpholino)-2-methylphenyl)isoindolin-5-amine], the EC50 lay in the range of 0.1 to 100 nM.
On the same count and under the same terms, the result for `CC1CN(c2ccc(Nc3ccc4oc(=O)[nH]c4c3)cc2)CC(C)O1` (centres unmarked) [Compound 441, 5-((4-(2,6-dimethylmorpholino)phenyl)amino)benzo[d]oxazol-2(3H)-one] reads 0.1 to 100 nM; that for `CC1CN(c2ccc(Nc3ccc4c(C(N)=O)cn(C)c4c3)cc2)CC(C)O1` (centres unmarked) [Compound 442, 6-((4-(2,6-dimethylmorpholino)phenyl)amino)-1-methyl-1H-indole-3-carboxamide], 0.1 to 100 nM; that for `Cc1cc(N2CC(C)OC(C)C2)ccc1Nc1ccc2[nH]ncc2c1` (centres unmarked) [Compound 443, N-(4-(2,6-dimethylmorpholino)-2-methylphenyl)-1H-indazol-5-amine], 0.1 to 100 nM.
On the same count and under the same terms, to `Cc1cc(N2CC(C)OC(C)C2)ccc1Nc1ccc2c(c1)c(C(N)=O)cn2C` (centres unmarked) [Compound 444, 5-((4-(2,6-dimethylmorpholino)-2-methylphenyl)amino)-1-methyl-1H-indole-3-carboxamide] belongs 0.1 to 100 nM.
For the compound `Cc1cc(N2CC(C)OC(C)C2)ccc1Nc1ccc2nn(C)cc2c1` (centres unmarked) [Compound 445, N-(4-(2,6-dimethylmorpholino)-2-methylphenyl)-2-methyl-2H-indazol-5-amine], the EC50 was in the range of 0.1 to 100 nM.
Take `Cc1cc(N2CC(C)OC(C)C2)ccc1Nc1ccc2oc(=O)n(C)c2c1` (centres unmarked) [Compound 446, 5-((4-(2,6-dimethylmorpholino)-2-methylphenyl)amino)-3-methylbenzo[d]oxazol-2(3H)-one]: the EC50 lay in the range of 0.1 to 100 nM.
On to `Cc1cc(N2CC(C)OC(C)C2)ccc1Nc1ccc2c(c1)ncn2C` (centres unmarked) [Compound 447, N-(4-(2,6-dimethylmorpholino)-2-methylphenyl)-1-methyl-1H-benzo[d]imidazol-5-amine], for which the EC50 was in the range of 0.1 to 100 nM.

Staying with this experiment, now noted: Homo sapiens; HT-1080 cells treated with RSL3; 3-fold, 10-point dilution, 1.1 μM highest concentration; Table 3; read-out: EC50 (nM), ferroptosis inhibitory activity.
`O=C1COc2cc(Nc3ccc(N4CCC(C(F)(F)F)CC4)cc3Cl)ccc2N1` [Compound 448, 7-({2-chloro-4-[4-(trifluoromethyl)piperidin-1-yl]phenyl}amino)-2,4-dihydro-1,4-benzoxazin-3-one]: the EC50 is 0.1 to 100 nM.
Turning to `CC1CN(c2ccc(Nc3ccc4c(c3)N(C)C(=O)C4(C)C)cc2)CC(C)O1` (centres unmarked) [Compound 449, 6-((4-(2,6-dimethylmorpholino)phenyl)amino)-1,3,3-trimethylindolin-2-one], the EC50 is 0.1 to 100 nM.
For the compound `O=C1COc2cc(Nc3ccc(N4CCC(C(F)(F)F)CC4)cc3)cnc2N1` [Compound 450, 7-((4-(4-(trifluoromethyl)piperidin-1-yl)phenyl)amino)-2H-pyrido[3,2-b][1,4]oxazin-3(4H)-one], the EC50 was in the range of 0.1 to 100 nM.
For `CN1C(=O)COc2cc(Nc3ccc(N4CCC(C(F)(F)F)CC4)cc3Cl)ccc21` [Compound 451, 7-((2-chloro-4-(4-(trifluoromethyl)piperidin-1-yl)phenyl)amino)-4-methyl-2H-benzo[b][1,4]oxazin-3(4H)-one], the EC50 is 0.1 to 100 nM.
Consider `Cc1cc(N2CCC(C(F)(F)F)CC2)ncc1Nc1ccc2c(c1)OCC(=O)N2C` [Compound 452, 4-methyl-7-((4-methyl-6-(4-(trifluoromethyl)piperidin-1-yl)pyridin-3-yl)amino)-2H-benzo[b][1,4]oxazin-3(4H)-one], for which the half-maximal effective concentration (EC50) is 0.1 to 100 nM.
For `Cc1cc(N2CCC(C(F)(F)F)CC2)ncc1Nc1ccc2c(c1)OCC(=O)N2` [Compound 453, 7-((4-methyl-6-(4-(trifluoromethyl)piperidin-1-yl)pyridin-3-yl)amino)-2H-benzo[b][1,4]oxazin-3(4H)-one], the EC50 is 0.1 to 100 nM.
With `Cc1c(Nc2ccc3c(c2)OCC(=O)N3)ccc(N2CCC(C(F)(F)F)CC2)c1F` [Compound 454, 7-((3-fluoro-2-methyl-4-(4-(trifluoromethyl)piperidin-1-yl)phenyl)amino)-2H-benzo[b][1,4]oxazin-3(4H)-one], the EC50 lay within 0.1 to 100 nM.
In the case of `Cc1cc(Nc2ccc3c(c2)OCC(=O)N3CCO)ccc1N1CC(C)OC(C)C1` (centres unmarked) [Compound 455, 7-((4-(2,6-dimethylmorpholino)-3-methylphenyl)amino)-4-(2-hydroxyethyl)-2H-benzo[b][1,4]oxazin-3(4H)-one], the EC50 is 0.1 to 100 nM.
For the compound `Cc1cc(N2CC(C)OC(C)C2)ccc1Nc1ccc2c(c1)OCC(=O)N2CCO` (centres unmarked) [Compound 456, 7-((4-(2,6-dimethylmorpholino)-2-methylphenyl)amino)-4-(2-hydroxyethyl)-2H-benzo[b][1,4]oxazin-3(4H)-one], the half-maximal effective concentration (EC50) fell in the range of 0.1 to 100 nM.
As to `Cc1cc(N2CC(C)OC(C)C2)ccc1Nc1cnc2c(c1)OCC(=O)N2C` (centres unmarked) [Compound 457, 7-((4-(2,6-dimethylmorpholino)-2-methylphenyl)amino)-4-methyl-2H-pyrido[3,2-b][1,4]oxazin-3(4H)-one], the EC50 fell in the range of 0.1 to 100 nM.
Consider `O=C1COc2cc(Nc3cnc(N4CCC(C(F)(F)F)CC4)c(F)c3)ccc2N1` [Compound 459, 7-((5-fluoro-6-(4-(trifluoromethyl)piperidin-1-yl)pyridin-3-yl)amino)-2H-benzo[b][1,4]oxazin-3(4H)-one], for which the EC50 was in the range of 0.1 to 100 nM.
The same measure, in the same setting: to `Cc1cc(N2CCC(C(F)(F)F)CC2)ccc1Nc1cnc2c(c1)OCC(=O)N2` [Compound 460, 7-((2-methyl-4-(4-(trifluoromethyl)piperidin-1-yl)phenyl)amino)-2H-pyrido[3,2-b][1,4]oxazin-3(4H)-one] belongs 0.1 to 100 nM.
As for `Cc1cc(N2CC(C)OC(C)C2)ccc1Nc1cnc2c(c1)OCC(=O)N2` (centres unmarked) [Compound 462, 7-((4-(2,6-dimethylmorpholino)-2-methylphenyl)amino)-2H-pyrido[3,2-b][1,4]oxazin-3(4H)-one], the EC50 fell in the range of 0.1 to 100 nM.
The same measure, in the same setting: to `Cc1cc(Nc2ccc(N3CC(C)OC(C)C3)cc2)cc2c1N(C)C(=O)CO2` (centres unmarked) [Compound 463, 7-{[4-(2,6-dimethylmorpholin-4-yl)phenyl]amino}-4,5-dimethyl-2H-1,4-benzoxazin-3-one] belongs 0.1 to 100 nM.
As for `COc1cc(Nc2cnc3c(c2)OCC(=O)N3C)ccc1N1CCC(C(F)(F)F)CC1` [Compound 464, 7-({3-methoxy-4-[4-(trifluoromethyl)piperidin-1-yl]phenyl}amino)-4-methyl-2H-pyrido[3,2-b][1,4]oxazin-3-one], the EC50 fell in the range of 0.1 to 100 nM.
Still for that read-out and setting: to `COc1cc(Nc2cnc3c(c2)OCC(=O)N3)ccc1N1CCC(C(F)(F)F)CC1` [Compound 465, 7-((3-methoxy-4-(4-(trifluoromethyl)piperidin-1-yl)phenyl)amino)-2H-pyrido[3,2-b][1,4]oxazin-3(4H)-one] belongs 0.1 to 100 nM; to `O=C1COc2cc(Nc3ccc(N4CCC(C(F)(F)F)CC4)cc3F)ccc2N1` [Compound 466, 7-((2-fluoro-4-(4-(trifluoromethyl)piperidin-1-yl)phenyl)amino)-2H-benzo[b][1,4]oxazin-3(4H)-one], 0.1 to 100 nM.
Take `Cc1cc(N2CCC(C(F)(F)F)CC2)ccc1Nc1ccc2oc(=O)[nH]c2c1` [Compound 467, 5-((2-methyl-4-(4-(trifluoromethyl)piperidin-1-yl)phenyl)amino) benzo[d]oxazol-2(3H)-one]: the EC50 is 0.1 to 100 nM.
Consider `Cc1cc(N2CCC(C(F)(F)F)CC2)ccc1Nc1cc(C#N)c2c(c1)OCC(=O)N2` [Compound 468, 7-((2-methyl-4-(4-(trifluoromethyl)piperidin-1-yl)phenyl)amino)-3-oxo-3,4-dihydro-2H-benzo[b][1,4]oxazine-5-carbonitrile], for which the EC50 fell in the range of 0.1 to 100 nM.
Consider `CN1C(=O)COc2cc(Nc3ccc(N4CCC(C(F)(F)F)CC4)cc3)c(N)cc21` [Compound 469, 6-amino-4-methyl-7-((4-(4-(trifluoromethyl)piperidin-1-yl)phenyl)amino)-2H-benzo[b][1,4]oxazin-3(4H)-one], for which the EC50 fell in the range of 0.1 to 100 nM.
On the same count and under the same terms, the result for `Cc1cc(N2CCCCC2)ccc1Nc1ccc2c(c1)OCC(=O)N2` [Compound 470, 7-((2-methyl-4-(piperidin-1-yl)phenyl)amino)-2H-benzo[b][1,4]oxazin-3(4H)-one] reads 0.1 to 100 nM; that for `CC[C@@H]1CN(c2ccc(Nc3ccc4c(c3)OCC(=O)N4)c(C)n2)C[C@@H](C)O1` [Compound 471, 7-((6-((2R,6R)-2-ethyl-6-methylmorpholino)-2-methylpyridin-3-yl)amino)-2H-benzo[b][1,4]oxazin-3(4H)-one], 0.1 to 100 nM; that for `CCC1Oc2cc(Nc3ccc(C4CCOCC4)cc3)ccc2N(C)C1=O` (centres unmarked) [Compound 472, 2-ethyl-4-methyl-7-((4-(tetrahydro-2H-pyran-4-yl)phenyl)amino)-2H-benzo[b][1,4]oxazin-3(4H)-one], 0.1 to 100 nM.
Consider `Cc1cc(N2CCC(C(F)(F)F)CC2)ccc1Nc1cc(C)c2c(c1)OCC(=O)N2` [Compound 473, 5-methyl-7-((2-methyl-4-(4-(trifluoromethyl)piperidin-1-yl)phenyl)amino)-2H-benzo[b][1,4]oxazin-3(4H)-one], for which the concentration giving a half-maximal response (EC50) lay within 0.1 to 100 nM.
Take `O=C1COc2cc(Nc3ccc(N4CCC(C(F)(F)F)CC4)nc3)ccc2N1` [Compound 474, 7-((6-(4-(trifluoromethyl)piperidin-1-yl)pyridin-3-yl)amino)-2H-benzo[b][1,4]oxazin-3(4H)-one]: the EC50 fell in the range of 0.1 to 100 nM.
